Results from USRE33375E, “Treatments employing drug-containing matrices for introduction into cellular lesion areas” (Matrix Pharmaceuticals, Inc., priority 1988, dated 1990).
Where a name gives a salt, the structure may show the parent alone. Marks after values point to notes of the source that are not given here.

Experiments:
[1] = tested on: experimental murine fibrosarcoma (RIF-1 cells); experiment: Regrowth delay of the treated transplantable murine fibrosarcoma; format: in vivo, murine; female C3H mice; conditions: for Regrowth Delay: time to 4 times initial treatment volume (150 mm^3), Mean ± S.E.
Method: times their initial treatment volume (150 mm^3). Increasing values
indicate enhanced therapeutic effect.
When the tumors reached a volume of 150 mm^3, the mice were assigned randomly to the following groups (4-6 mice per group): (1) untreated controls; (2) 5-FU (100 mg/kg), i.p., 0.1 ml/mouse; (3) 5-FU (100 mg/kg), i.t., 0.1 ml/tumor; (4) 5-FU-BC (100 mg 5-FU/kg dispersed in BC (18 mg/ml)), i.t., 0.1 ml/tumor; 5-FU-EPI-BC (100 mg 5-FU/kg) 5 mg EPI/kg dispersed in BC (18 mg/ml), i.t., 0.1 ml/tumor.
In the next study doxorubicin-HCl (ADM) (Adriamycin) was studied using the above-described protocol. The adriamycin in distilled water (4.45 mg/ml) was mixed with 36 mg/ml bovine collagen (BC) 1:1 to yield a composition ratio of 2.25 mg adriamycin:18 mg BC/ml.
^2 Tumor Regrowth Delay (RD). Time (days) required for tumors to grow
to 3 × its original treatment volume (~150 mm^3).
Increasing RD indicate increased tumor cell killing.

[2] = tested on: uninjected contralateral fibrosarcoma (RIF-1 cells); experiment: Regrowth delay of the uninjected contralateral fibrosarcoma; format: in vivo, murine; female C3H mice; conditions: for Regrowth Delay, uninjected contra: time to 4 times initial volume, Mean ± S.E.
Method: A transplantable experimental murine fibrosarcoma (2×10^5 RIF-1 cells) was grown intradermally in the flank of 5 month old female C3H mice (Bantin and Kingman, Fremont, Calif.). Cis-diamine dichloroplatinum (II) (cis-Pt) (Sigma Chemical Co., St. Louis, Mo.) was dissolved in sterile saline at concentrations of 0.8, 1.6 and 3.2 mg/ml and mixed 1:1 with bovine collagen (BC) (36 mg/ml) in PBS 20 mM phosphate, 140 mM NaCl (Collagen Corp., Palo Alto, Calif.). Doses of 2, 4 and 8 mg/kg host of cis-Pt were delivered in 0.1 ml of the collagenous drug mixture to the center of the tumor growing in the flank (intratumorally, i.t.), and the tumor measured. The growth of a second uninjected tumor on the opposing flank of the same mouse was also measured. In addition, cis-Pt dissolved in PBS without collagen was administered intraperitoneally (i.p.) to other tumor-bearing mice (4 tumors/group) to monitor the effects on tumor growth of the drug without collagen. Furthermore, the effect of bovine collagen on tumor growth was also studied by injection of 0.1 ml of collagen, (18 mg/ml) into the experimental fibrosarcomas, as previously described. The growth of the tumors was monitored three times per week by caliper measurements of three perpendicular diameters of the tumor and calculating tumor volume from the formula
*Regrowth Delay determined as the time (days) for tumors to grow to four
times their initial treatment volume (150 mm^3).
(§1) In the next study 5-fluorouracil (5-FU) (Sigma Chem. Co., St. Louis, Mo.) with and without epinephrine (Sigma) suspended in saline by sonication (60 mg/ml) and mixed 1:1 with bovine collagen (BC) (Collagen Corp., Palo Alto, Calif.) (36 mg/ml) or normal saline. The subjects were 25 gm 12 week-old female C3H/He mice (Bantin and Kingman, Fremont, Calif.) bearing the transplatable experimental murine fibrosarcoma propagated intradermally as previously described.
(§2) The adriamycin in distilled water (4.45 mg/ml) was mixed with 36 mg/ml bovine collagen (BC) 1:1 to yield a composition ratio of 2.25 mg adriamycin:18 mg BC/ml.
^3 Contralateral Tumor RD (CRD). Time (days) required for untreated
contralateral tumors to grow to 3× its original treatment volume
(~150 mm^3). Decreasing RD indicate enhanced regionalization of
drug injected when compared to RD.
(§3) In the next study vincristine (VCR) was dissolved in saline (0.6 mg/ml) by sonication and mixed 1:1 with bovine collagen (36 mg/ml). Otherwise, the procedure was the same.
In the next study a combination of bleomycin sulfate (Sigma Chemical Co., St. Louis, Mo.) (15 mg/kg) and epinephrine (5 mg/kg) employed in a bovine collagen composition were evaluated for antitumor effect in the transplantable experimental murine fibrosarcoma model previously described. […]

white blood cells = experiment: White blood cell count in tumor-bearing mice
Method: as §1
(§4) On day four post-treatment, white blood cells (wbc) were counted by sampling blood from the tail, dilution in Turk's solution and counting in a hemocytometer. On day eight post-treatment, skin reaction is overlying tissue was graded for untoward response.
as §2
^4 White Blood Cells measured on Day 4 post injection by sampling fro
the tail of treatment mice.
as §3
In the next study a combination of bleomycin sulfate (Sigma Chemical Co., St. Louis, Mo.) (15 mg/kg) and epinephrine (5 mg/kg) employed in a bovine collagen composition were evaluated for antitumor effect in the transplantable experimental murine fibrosarcoma model previously described.
(§5) In another experiment the curative potential of drug matrix formulations was evaluated in the experimental murine fibrosarcoma model. Briefly, female C3H/He mice bearing a single experimental tumor produced as previously described were treated at weekly intervals with formulations containing 5-fluorouracil (50 mg/kg); bovine collagen BC (Collagen Corp., Palo Alto, Calif.); epinephrine (Sigma Chemical Co., St. Louis, Mo.); and PBS. WBC's were determined on Day 4 following each treatment cycle and skin reaction on […] after each treatment cycle. Treatment was discontinued for all grops when 3 of 4 experiment groups reach 4×initial tumor volume. When tumors reached a volume of 150 mm^3 the mice were randomly assigned to the following groups:
(§6) 2. 5-FU-PBS i.p.; 5-FU (23 mg/ml) was combined 1:1 with PBS; 0.1 ml injected/mouse i.p.
(§7) 3. 5-FU-PBS i.t.; 5-FU (23 mg/ml) was combined 1:1 with PBS; 0.1 ml injected/tumor i.t.
(§8) 4. 5-FU-BC i.t.; 5-FU (23 mg/ml) was combined 1:1 with bovine collagen (36 mg/ml); 0.1 ml injected i.t.
(§9) In another experiment the influence of matrix composition on antitumor activity of 5-fluorouracil (100 mg/kg) was evaluated in the experimental murine fibrosarcoma model previously described. 5-FU (Sigma Chemical Co., St. Louis, Mo.) was combined as described below with bovine collagen BC (Collagen Corp., Palo Alto, Calif.); bovin fibronogen (95% clottable, Sigma), bovine thrombin (2000NIH units/mg, Sigma) and Ringer's Solution For Injection (RFI, Abbott Labs., North Chicago, Ill.). When tumors reached a volume of 150 mm^3 the mice (Bantin and Kingman, Fremont, Calif.) were assigned randomly to the following groups, (3-4 mice/group):
(§10) 3. 5-FU-Fibrinogen: 5-FU (36 mg/ml) combined 1:1 with the fibrinogen preparation described in 2 above, 0.1 ml i.t.
(§11) 4. 5-FU-BC-Fibrinogen: 5-FU (36 mg/ml) combined 1:1 with a fibrinogen-BC preparation consisting of fibrinogen (30 mg/ml); BC (36 mg/ml) dispersed in RFI containing 1 NIH unit of thrombin activity/ml, 0.1 ml i.t.

skin overlying the tumor = experiment: Skin reaction of the skin overlying the tumor
Method: as §4
(§12) The skin reaction is scored as follows: […]
as §12, §5, §9, §10, §11
In the next experiment 5-fluorouracil-matrix implant in combination with X-rays was evaluated. Single RIF-1 tumors were grown on the back of female C3H mice (12-16 weeks) (Bantin and Kingman, Fremont, Calif.) as previously described. When the tumors reached volumes of 150 mm^3, they were divided into the following groups, (4-6 mice/group):
(§13) Tumor bearing mice were irradiated in lead jigs exposing only the tumor and overlying skin with a 250 kVp X-ray machine at a dose rate of 120 rad/min. The tumors of the treated and untreated mice were measured three times per week and assayed for regrowth delay and skin reactions as previously described.

[3] = tested on: experimental murine fibrosarcoma; experiment: Tumor regrowth delay on weekly treatment (curative potential); format: in vivo, murine; female C3H/He mice
Method: as §5, §6, §7, §8

RIF-1 tumor [4] = experiment: RIF-1 tumor regrowth delay, 5-fluorouracil-matrix implant in combination with X-rays; format: in vivo, female C3H mice; conditions: 5-FU 75 mg/Kg, i.p.
Method: In the next experiment 5-fluorouracil-matrix implant in combination with X-rays was evaluated. […] When the tumors reached volumes of 150 mm^3, they were divided into the following groups, (4-6 mice/group):
2. X-rays (1000 rad.) alone
3. Collagen-matrix (CM) i.t. 5 min. before X-rays
4. 5-Fluorouracil (5-FU) (75 mg/Kg) i.p.
6. 5-FU i.p. 5 min before X-rays
as §13

RIF-1 tumor [5] = experiment: RIF-1 tumor regrowth delay, cis-DDP-matrix implant in combination with hyperthermia; format: in vivo, female C3H mice; conditions: cis-DDP 6 mg/Kg, i.p.
Method: In the next study cis-DDP-matrix (DDP=cis-Pt) implant in combination with hyperthermia was evaluated.
2. Hyperthermia (43° C., 30 min) alone
3. Hyperthermia+collagen-matrix (CM)+epinephrine (epi) (2 mg/Kg)
4. cis-DDP (6 mg/Kg) i.p.
6. cis-DDP (i.p.) 30 min before hyperthermia
7. cis-DDP-CM-epi (i.t.) 30 min before hyperthermia.
The tumor bearing mice were heated in a precision water bath with 30 gauge thermistor thermometry (±0.2° C.).

[6] = Acute animal toxicity / survival after injection; conditions: 15 mg/kg
Method: as §1, §2

[7] = 5-FU 100 mg/kg, i.p., mean ± S.E.
[8] = 5-FU 100 mg/kg, i.t. (± EPI 5 mg/kg), mean ± S.E.
[9] = 5-FU 50 mg/kg on Days 0, 8 and 16, i.p.
[10] = 5-FU 50 mg/kg on Days 0, 8 and 16, i.t. (± Epinephrine 5 mg/kg)
[11] = BLM 15 mg/kg, i.p., mean ± S.E.
[12] = BLM 15 mg/kg, i.t. (± EPI 5 mg/kg), mean ± S.E.

O=c1[nH]cc(F)c(=O)[nH]1 [5-FU, 5-fluorouracil]
Tumor Regrowth Delay [1, 7]: 13.1 ± 1.4 days | Tumor Regrowth Delay [1, 8]: 14.5 ± 0.9 days | Untreated Contralateral Regrowth Delay [2, 7]: 13.1 ± 1.4 days | Untreated Contralateral Regrowth Delay [2, 8]: 11.1 ± 0.6 days | WBC D-12 (white blood cells; [9]): 109 ± 28 | WBC D-12 (white blood cells; [10]): 107 ± 25 | White Blood Cells/mm^3 (white blood cells; 5-FU 100 mg/kg, i.p., day four post-treatment): 4.5 ± 0.6 Cells/mm^3 (× 10^3) | White Blood Cells/mm^3 (white blood cells; 5-FU 100 mg/kg, i.t. (± EPI 5 mg/kg), day four post-treatment): 3.5 ± 0.5 Cells/mm^3 (× 10^3) | Skin Reaction D-8 (skin overlying the tumor; [9]): 1.2 ± 1.1 | Skin Reaction D-8 (skin overlying the tumor; [10]): 1.0 ± 0.6 | Skin Reaction (skin overlying the tumor; 5-FU 75 mg/Kg, i.p. + X-rays (1000 rad), scored as previously described (0-3)): 2 | Skin Reaction (skin overlying the tumor; 5-FU 75 mg/Kg, i.p., no X-rays, scored as previously described (0-3)): 2 | Skin Reaction (skin overlying the tumor; 5-FU 100 mg/kg, i.p., Day 8, 0 = no effect, 1 = superficial inflammation, 2 = scab, 3 = ulcer): 0.7 ± 0.4 | Skin Reaction (skin overlying the tumor; 5-FU 100 mg/kg, i.t. (± EPI 5 mg/kg), Day 8, 0 = no effect, 1 = superficial inflammation, 2 = scab, 3 = ulcer): 0 | Tumor Regrowth 4 × [3, 9]: 10.3 ± 1.3 days | Tumor Regrowth 4 × [3, 10]: 14.9 ± 3.8 days | 2× Tumor Regrowth Delay (RIF-1 tumor [4]; 5 min before X-rays (1000 rad)): 12.6 ± 2.8 days | 2× Tumor Regrowth Delay (RIF-1 tumor [4]; no X-rays): 8.5 ± 1.1 days

N.N.[Cl][Pt][Cl] [cis-Pt, Cis-diamine dichloroplatinum (II)]
Regrowth Delay ([1]; i.p., 2 mg/kg cis-Pt): 7.2 ± 0.1 days | Regrowth Delay ([1]; i.p., 4 mg/kg cis-Pt): 9.1 ± 0.7 days | Regrowth Delay ([1]; i.p., 8 mg/kg cis-Pt): 9.9 ± 1.0 days | Regrowth Delay ([1]; i.t., 2 mg/kg cis-Pt, injected tumor): 9.5 ± 0.5 days | Regrowth Delay ([1]; i.t., 4 mg/kg cis-Pt, injected tumor): 10.3 ± 0.7 days | Regrowth Delay ([1]; i.t., 8 mg/kg cis-Pt, injected tumor): 11.5 ± 0.04 days | Regrowth Delay, uninjected contra ([2]; opposing tumor injected i.t. with 2 mg/kg cis-Pt): 9.3 ± 1.2 days | Regrowth Delay, uninjected contra ([2]; opposing tumor injected i.t. with 4 mg/kg cis-Pt): 8.9 ± 0.7 days | Regrowth Delay, uninjected contra ([2]; opposing tumor injected i.t. with 8 mg/kg cis-Pt): 9.9 ± 0.9 days | Tumor Regrowth Delay (2×) (RIF-1 tumor [5]; 30 min before hyperthermia (43° C., 30 min)): 8.9 ± 0.8 days | Tumor Regrowth Delay (2×) (RIF-1 tumor [5]; no hyperthermia): 6.5 ± 1.5 days

bleomycin sulfate [BLM]
Tumor Regrowth Delay [1, 11]: 7.5 ± 0.9 days | Tumor Regrowth Delay [1, 12]: 8.9 ± 0.6 days | Untreated Contralateral Regrowth Delay [2, 11]: 7.5 ± 0.9 days | Untreated Contralateral Regrowth Delay [2, 12]: 7.0 ± 0.7 days

CC[C@]1(O)C[C@H]2CN(CCc3c([nH]c4ccccc34)[C@@](C(=O)OC)(c3cc4c(cc3OC)N(C=O)[C@H]3[C@@](O)(C(=O)OC)[C@H](OC(C)=O)[C@]5(CC)C=CCN6CC[C@]43[C@@H]65)C2)C1 [VCR, vincristine]
Tumor Regrowth Delay ([1]; VCR 2 mg/kg, i.p.): 10.6 ± 2.0 days | Untreated Contralateral Regrowth Delay ([2]; VCR 2 mg/kg, i.p.): 10.6 ± 2.0 days | White Blood Cells/mm^3 (white blood cells; VCR 2 mg/kg, i.p.): 7.4 ± 1.3 Cells/mm^3 (× 10^3) | Skin Reaction (skin overlying the tumor; VCR 2 mg/kg, i.p., scored as in the preceding studies (0-3)): 0.6 ± 0.4

COc1cccc2c1C(=O)c1c(O)c3c(c(O)c1C2=O)C[C@@](O)(C(=O)CO)C[C@@H]3O[C@H]1C[C@H](N)[C@H](O)[C@H](C)O1 [Free ADM, doxorubicin-HCl]
Tumor Regrowth Delay, Treated ([1]; ADM 15 mg/kg, i.t., time to 3 × original treatment volume (~150 mm^3)): 13.7 ± 1.7 days | Tumor Regrowth Delay, Contralateral ([2]; ADM 15 mg/kg, i.t., untreated contralateral tumor, time to 3× original treatment volume (~150 mm^3)): 8.3 ± 0.75 days | White Blood Cells/mm^3 (white blood cells; ADM 15 mg/kg, i.t., Day 4 post injection): 4.1 ± 0.69 Cells/mm^3 (× 10^3) | Skin Reaction (skin overlying the tumor; ADM 15 mg/kg, i.p., Day 8 post injection, 0 = no effect, 1 = superficial inflammation, 2 = scab, 3 = ulcer): 1.5 ± 0.5 | Skin Reaction (skin overlying the tumor; ADM 15 mg/kg, i.t., Day 8 post injection, 0 = no effect, 1 = superficial inflammation, 2 = scab, 3 = ulcer): 2.0 | toxicity of intratumoral injection ([6]; intratumoral injection): non-toxic | survival ([6]; mouse, in vivo): 100% | mortality ([6]; mouse, in vivo, ip): 75% | survival ([6]; mouse, in vivo, ip): 25%
